Test results published in patent EP4653448A1, “COMPOUND FOR RNA CAPPING AND USE THEREOF” (Guangzhou Henovcom Bioscience Co. Ltd., priority 2023, dated 2024).

Legend:
T7 RNA Polymerase = T7 RNA Polymerase (Escherichia phage T7, UniProt P00573); experiment: Detection of the efficiency of mRNA capping synthesis (in vitro transcription, product yield); assay type: biochemical; settings: 20 µL mRNA synthesis reaction system
Experimental: • 1) The plasmids were linearized and the DNA templates were purified. • 2) The mRNA was synthesized by in vitro transcription, using the capping structure prepared in the present disclosure, positive control CleanCap®AG (3'OMe) (Trilink, N-7413), negative control (uncapped mRNA) and blank control (DNase/RNase-Free water), respectively. Reaction system
The reaction was carried out at 37°C for 2 to 3 h. TURBO DNase digestion was carried out for 15 min. The mRNA was precipitated by LiCl for 30 min or more or overnight, and the mRNA precipitate was washed with 75% ethanol, dried briefly to evaporate the ethanol, and the mRNA was redissolved with RNase-Free water.
In the reaction system listed in Table 1, since the solubility of different test compounds varies in different solutions, adjustments can be made as needed. For ease of operation, the commonly used concentrations are 10 mM and 100 mM. […] If the initial concentration of the test compound is 10 mM, the dosage is 8 µL. Regardless of the initial concentration, the dosages of different test compounds were the same, and the final concentrations were also the same.
For example, when testing compounds S17 and S19, their initial concentration was 10 mM, and the addition volume was 8 µL. When testing compounds 5 and 6, their initial concentration was 100 mM, and the addition volume was 0.8 µL.
The assay was performed according to the method described in Example 20.

HEK293T cells = experiment: Expression efficiency of capped luciferase mRNAs in HEK293T cells; assay type: cell-based; settings: 6 h after transfection of capped luciferase mRNA
Experimental: • 1) HNE293T cells were cultured in DMEM medium containing 10% FBS and penicillin/streptomycin at 37°C and 5% CO2. • 2) The cultured HEK293T cells were spread in a 96-well plate with 1.25 × 10^4 cells per well. • 3) After the cells completely adhered to the wall, 0.5 µg of a mixture of mRNA sample and Polyplus jet[…] was added to each well of cells, and cultured at 37°C and 5% CO2 for 6 h. • 4) The growth medium was removed from the cells to be tested and the cells were rinsed with PBS. After centrifugation to remove PBS, 50 µL of 1x lysis buffer was added thereto, and cells and all liquid were transferred to a microcentrifuge tube, and then centrifuged at 12000 x g at 4°C for 2 min. • 5) The supernatant was transferred to a new tube. Fluorescence readings were detected using the ONE-Glo Luciferase Assay System Kit.
All test compounds, N-7413, negative control and blank control were tested under the same conditions, and some experimental results in the test results are shown in Table 3. Table 3. Relative fluorescence readings for capped mRNAs
The assay was performed according to the method described in Example 21. All test compounds, N-7413, negative control and blank control were tested under the same conditions, and some experimental results in the test results are shown in Table 5. Table 5 Relative fluorescence readings for capped mRNAs

[1] = test compound 4 mM, 37°C 2 to 3 h (Table 2)
[2] = 0.5 µg per well, reading of N-7413 = 1 (Table 3)
[3] = reading of N-7413 = 1 (Table 5)

Sequence of T7 RNA Polymerase (P00573 whole entry): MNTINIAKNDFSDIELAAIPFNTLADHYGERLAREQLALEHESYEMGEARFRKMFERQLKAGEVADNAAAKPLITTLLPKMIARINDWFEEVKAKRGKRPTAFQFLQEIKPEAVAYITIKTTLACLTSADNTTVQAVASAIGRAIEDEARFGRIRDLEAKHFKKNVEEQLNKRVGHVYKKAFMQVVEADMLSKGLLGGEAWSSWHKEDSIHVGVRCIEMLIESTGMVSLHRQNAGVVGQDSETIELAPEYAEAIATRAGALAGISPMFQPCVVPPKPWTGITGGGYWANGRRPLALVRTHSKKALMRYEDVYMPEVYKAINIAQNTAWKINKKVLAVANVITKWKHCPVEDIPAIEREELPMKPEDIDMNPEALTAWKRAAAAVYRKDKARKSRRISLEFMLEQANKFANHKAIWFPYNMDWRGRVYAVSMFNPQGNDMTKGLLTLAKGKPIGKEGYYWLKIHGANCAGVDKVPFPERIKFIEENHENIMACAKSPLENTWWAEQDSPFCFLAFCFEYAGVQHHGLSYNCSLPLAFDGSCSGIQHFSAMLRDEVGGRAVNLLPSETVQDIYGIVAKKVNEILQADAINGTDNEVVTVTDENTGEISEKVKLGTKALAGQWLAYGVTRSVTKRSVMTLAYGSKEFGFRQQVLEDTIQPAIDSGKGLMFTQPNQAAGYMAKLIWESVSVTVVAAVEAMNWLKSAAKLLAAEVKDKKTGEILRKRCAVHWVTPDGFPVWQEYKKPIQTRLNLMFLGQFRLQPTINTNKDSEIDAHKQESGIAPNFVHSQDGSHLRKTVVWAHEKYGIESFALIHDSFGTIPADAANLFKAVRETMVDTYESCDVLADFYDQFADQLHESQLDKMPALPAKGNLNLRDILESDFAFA

| Structure (SMILES) | Final product mass (T7 RNA Polymerase; [1]) [µg] | Relative fluorescence reading (HEK293T cells; [2]) | Relative fluorescence reading (HEK293T cells; [3]) | Final product mass (T7 RNA Polymerase; method of Example 20 (Table 4)) [µg] |
| --- | --- | --- | --- | --- |
| COCCOCCOCC(=O)NC[C@H]1[C@@H](O)[C@H](n2c[n+](C)c3c(=O)[nH]c(N)nc32)O[C@@H]1COP(=O)([O-])OP(=O)(O)OP(=O)(O)OC[C@H]1O[C@@H](n2cnc3c(N)ncnc32)[C@H](OC)[C@@H]1OP(=O)(O)OC[C@H]1O[C@@H](n2cnc3c(=O)[nH]c(N)nc32)[C@H](O)[C@@H]1O [Compound 5] | 180 | 1.86 | – | – |
| COCCOCCOCCOCCOCC(=O)NC[C@H]1[C@@H](O)[C@H](n2c[n+](C)c3c(=O)[nH]c(N)nc32)O[C@@H]1COP(=O)([O-])OP(=O)(O)OP(=O)(O)OC[C@H]1O[C@@H](n2cnc3c(N)ncnc32)[C@H](OC)[C@@H]1OP(=O)(O)OC[C@H]1O[C@@H](n2cnc3c(=O)[nH]c(N)nc32)[C@H](O)[C@@H]1O [Compound 6] | 117 | 1.90 | – | – |
| COC[C@]1(F)[C@@H](COP(=O)(O)OP(=O)(O)OP(=O)(O)OC[C@H]2O[C@@H](n3cnc4c(N)ncnc43)[C@H](OC)[C@@H]2OP(=O)([O-])OC[C@H]2O[C@@H](n3cnc4c(=O)[nH]c(N)nc43)[C@H](O)[C@@H]2O)O[C@@H](n2c[n+](C)c3c(=O)[nH]c(N)nc32)[C@@H]1O [Compound D1] | – | – | 2.07 | – |
| COC1C(OP(=O)([O-])OCC2OC(n3cnc4c(=O)[nH]c(N)nc43)C(O)C2O)C(COP(=O)(O)OP(=O)(O)OP(=O)(O)OCC2OC(n3c[n+](C)c4c(=O)[nH]c(N)nc43)C(O)C2(F)CN=[N+]=[N-])OC1n1cnc2c(N)ncnc21 (stereo not shown) [Compound D20] | – | – | 1.23 | 113 |
| COCC1(F)C(COP(=O)(O)CP(=O)(O)OP(=O)(O)OCC2OC(n3cnc4c(N)ncnc43)C(OC)C2OP(=O)([O-])OCC2OC(n3cnc4c(=O)[nH]c(N)nc43)C(O)C2O)OC(n2c[n+](C)c3c(=O)[nH]c(N)nc32)C1O (stereo not shown) [Compound D23] | – | – | 0.93 | 96 |
| COCC1(F)C(COP(=O)(O)OP(=O)(O)CP(=O)(O)OCC2OC(n3cnc4c(N)ncnc43)C(OC)C2OP(=O)([O-])OCC2OC(n3cnc4c(=O)[nH]c(N)nc43)C(O)C2O)OC(n2c[n+](C)c3c(=O)[nH]c(N)nc32)C1O (stereo not shown) [Compound D24] | – | – | 1.08 | 83 |
| COCC1(F)C(COP(=O)(O)OP(=O)(O)OP(=O)(O)OP(=O)(O)OCC2OC(n3cnc4c(N)ncnc43)C(OC)C2OP(=O)([O-])OCC2OC(n3cnc4c(=O)[nH]c(N)nc43)C(O)C2O)OC(n2c[n+](C)c3c(=O)[nH]c(N)nc32)C1O (stereo not shown) [Compound D28] | – | – | 1.12 | 92 |
| CO[C@@H]1[C@H](OP(=O)([O-])OC[C@H]2O[C@@H](n3cnc4c(=O)[nH]c(N)nc43)[C@H](O)[C@@H]2O)[C@@H](COP(=O)(O)OP(=O)(O)OP(=O)(O)OC[C@H]2O[C@@H](n3c[n+](C)c4c(=O)[nH]c(N)nc43)[C@H](O)[C@]2(F)CNC(C)=O)O[C@H]1n1cnc2c(N)ncnc21 [Compound D31] | – | – | 1.73 | 133 |
| CO[C@@H]1[C@H](OP(=O)([O-])OC[C@H]2O[C@@H](n3cnc4c(=O)[nH]c(N)nc43)[C@H](O)[C@@H]2O)[C@@H](COP(=O)(O)OP(=O)(O)OP(=O)(O)OC[C@H]2O[C@@H](n3c[n+](C)c4c(=O)[nH]c(N)nc43)[C@H](O)[C@]2(F)C(=O)N(C)C)O[C@H]1n1cnc2c(N)ncnc21 [Compound D82] | – | – | 1.63 | 146 |
| COC1C(OP(=O)([O-])OCC2OC(n3cnc4c(=O)[nH]c(N)nc43)C(O)C2O)C(COP(=O)(O)OP(=O)(O)OP(=O)(O)OCC2OC(n3c[n+](C)c4c(=O)[nH]c(N)nc43)C(O)C2(C)F)OC1n1cnc2c(N)ncnc21 (stereo not shown) [Compound D85] | – | – | 1.6 | 120 |
| COCC1(N=[N+]=[N-])C(COP(=O)(O)OP(=O)(O)OP(=O)(O)OCC2OC(n3cnc4c(N)ncnc43)C(OC)C2OP(=O)([O-])OCC2OC(n3cnc4c(=O)[nH]c(N)nc43)C(O)C2O)OC(n2c[n+](C)c3c(=O)[nH]c(N)nc32)C1O (stereo not shown) [Compound D86] | – | – | 1.35 | 111 |
| CNc1nc2c(c(=O)[nH]1)[n+](C)cn2[C@@H]1O[C@H](COP(=O)(O)OP(=O)(O)OP(=O)(O)OC[C@H]2O[C@@H](n3cnc4c(N)ncnc43)[C@H](OC)[C@@H]2OP(=O)([O-])OC[C@H]2O[C@@H](n3cnc4c(=O)[nH]c(N)nc43)[C@H](O)[C@@H]2O)[C@@](F)(COC)[C@H]1O [Compound D87] | – | – | 1.55 | 98 |
| COCC1(F)C(COP(=O)(O)OP(=O)(O)OP(=O)(O)OCC2OC(n3cnc4c(N)ncnc43)C(OC)C2OP(=O)([O-])OCC2OC(n3cnc4c(=O)[nH]c(N)nc43)C(O)C2O)OC(n2c[n+](Cc3ccccc3)c3c(=O)[nH]c(N)nc32)C1O (stereo not shown) [Compound D88] | – | – | 2.04 | 114 |
| CC[n+]1cn(C2OC(COP(=O)(O)OP(=O)(O)OP(=O)(O)OCC3OC(n4cnc5c(N)ncnc54)C(OC)C3OP(=O)([O-])OCC3OC(n4cnc5c(=O)[nH]c(N)nc54)C(O)C3O)C(F)(COC)C2O)c2nc(N)[nH]c(=O)c21 (stereo not shown) [Compound D89] | – | – | 1.52 | 110 |
| C=CC[n+]1cn(C2OC(COP(=O)(O)OP(=O)(O)OP(=O)(O)OCC3OC(n4cnc5c(N)ncnc54)C(OC)C3OP(=O)([O-])OCC3OC(n4cnc5c(=O)[nH]c(N)nc54)C(O)C3O)C(F)(COC)C2O)c2nc(N)[nH]c(=O)c21 (stereo not shown) [Compound D90] | – | – | 1.44 | 100 |
| COCC1(F)C(COP(=O)(O)OP(=O)(O)OP(=O)(O)OCC2OC(n3cnc4c(N)ncnc43)C(OC)C2OP(=O)([O-])OCC2OC(n3cnc4c(=O)[nH]c(N)nc43)C(O)C2O)OC(n2c[n+](Cc3ccc(F)cc3)c3c(=O)[nH]c(N)nc32)C1O (stereo not shown) [Compound D91] | – | – | 1.93 | 113 |
| COCC1(F)C(COP(=O)(O)OP(=O)(O)OP(=O)(O)OCC2OC(n3cnc4c(N)ncnc43)C(OC)C2OP(=O)([O-])OCC2OC(n3cnc4c(=O)[nH]c(N)nc43)C(O)C2O)OC(n2c[n+](Cc3ccc(Cl)cc3)c3c(=O)[nH]c(N)nc32)C1O (stereo not shown) [Compound D92] | – | – | 1.78 | 109 |
| COCC1(F)C(COP(=O)(O)OP(=O)(O)OP(=O)(O)OCC2OC(n3cnc4c(N)ncnc43)C(OC)C2OP(=O)([O-])OCC2OC(n3cnc4c(=O)[nH]c(N)nc43)C(O)C2O)OC(n2c[n+](Cc3ccc(C)cc3)c3c(=O)[nH]c(N)nc32)C1O (stereo not shown) [Compound D93] | – | – | 1.95 | 105 |
| COCC1(F)C(COP(=O)(O)OP(=O)(O)OP(=O)(O)OCC2OC(n3cnc4c(N)ncnc43)C(OC)C2OP(=O)([O-])OCC2OC(n3cnc4c(=O)[nH]c(N)nc43)C(O)C2O)OC(n2c[n+](Cc3ccc(OC)cc3)c3c(=O)[nH]c(N)nc32)C1O (stereo not shown) [Compound D94] | – | – | 1.85 | 116 |
| CNc1ncnc2c1ncn2C1OC(COP(=O)(O)OP(=O)(O)OP(=O)(O)OCC2OC(n3c[n+](C)c4c(=O)[nH]c(N)nc43)C(O)C2(C)F)C(OP(=O)([O-])OCC2OC(n3cnc4c(=O)[nH]c(N)nc43)C(O)C2O)C1OC (stereo not shown) [Compound D95] | – | – | 0.83 | 111 |
| CNc1ncnc2c1ncn2C1OC(COP(=O)(O)OP(=O)(O)OP(=O)(O)OCC2OC(n3c[n+](C)c4c(=O)[nH]c(N)nc43)C(O)C2(F)COC)C(OP(=O)([O-])OCC2OC(n3cnc4c(=O)[nH]c(N)nc43)C(O)C2O)C1OC (stereo not shown) [Compound D96] | – | – | 2.96 | 94 |
| COCC1(F)C(COP(=O)(O)OP(O)(=S)OP(=O)(O)OCC2OC(n3cnc4c(N)ncnc43)C(OC)C2OP(=O)([O-])OCC2OC(n3cnc4c(=O)[nH]c(N)nc43)C(O)C2O)OC(n2c[n+](C)c3c(=O)[nH]c(N)nc32)C1O (stereo not shown) [Compound D97] | – | – | 2.05 | 91 |
